Source: patent publication US10982284B2, “Compositions and methods APC, CREB, and BAD pathways to assess and affect cancer” (H. Lee Moffitt Cancer Center and Research Institute, Inc., priority 2011, dated 2021)

Assays:
Assay in all cases: CellTiter-Blue cell viability assay
Format in all cases: cell-based, human
IGR-OV1 = IGR-OV1 ovarian cancer cell line, 72 hours, 50% reduction in growth/viability
Description: (§1) Ovarian cancer cell lines were obtained from the American Type Culture Collection (Manassas, Va.) (CAOV3, OV90, OVCAR3, SKOV3, TO[…]); from the European Collection of Cell Cultures, Salisbury, UK (A2780CP, A2780S); or from Kyoto University, Kyoto, Japan ([…], Tyknu, and TyknuC is R) or were kind gifts from Dr. Patricia Kruk, Department of Pathology, College of Medicine, University of South Florida, Tampa, Fla., and Susan Murphy, PhD, Dept of OBGYN/Division of GYN Oncology, Duke University, Durham, N.C. […] Cell lines were maintained in RPMI-1640 (Invitrogen, Carlsbad, Calif.) supplemented with 10% fetal bovine serum (Fisher Scientific, Pittsburgh, Pa.), 1% sodium pyruvate, 1% penicillin/streptomycin (Cellgro, Manassas, Va.), and 1% nonessential amino acids (HyClone, Hudson, N.H.). Mycoplasma testing was performed every 6 months following manufacturer's protocol (Lonza, Rockland, Me.). Drug activity was evaluated using a high-throughput CellTiter-Blue cell viability assay. […] After cell adherence, increasing concentrations of cisplatin, carboplatin (Sigma-Aldrich, St. Louis, Mo.), paclitaxel (Sequoia Research Products Ltd., Pangbourne, UK), or carboplatin plus paclitaxel (carbotaxol: constant molar ratio of carboplatin to paclitaxel of 20,000:1) were added to appropriate wells using an automated pipetting station. Four replicate wells were used for each drug concentration and vehicle controls. […] The cells were incubated with the drug for 72 hours, and 5 μL of CellTiter-Blue reagent (Promega Corp) was added to each well. Fluorescence was read at […] using a Synergy 4 microplate reader (Bio-Tek Instruments, Inc., Winooski, Vt.).

OVCAR10 = OVCAR10 ovarian cancer cell line, 72 hours, 50% reduction in growth/viability
Description: as §1

CAOV3 = CAOV3 ovarian cancer cell line, 72 hours, 50% reduction in growth/viability
Description: as §1

BG1 = BG1 ovarian cancer cell line, 72 hours, 50% reduction in growth/viability
Description: as §1

SK-OV-4 = SK-OV-4 ovarian cancer cell line, 72 hours, 50% reduction in growth/viability
Description: as §1

A2008 = A2008 ovarian cancer cell line, 72 hours, 50% reduction in growth/viability
Description: as §1

OV90 = OV90 ovarian cancer cell line, 72 hours, 50% reduction in growth/viability
Description: as §1

IMCC5 = IMCC5 ovarian cancer cell line, 72 hours, 50% reduction in growth/viability
Description: as §1

A2780S = A2780S ovarian cancer cell line, 72 hours, 50% reduction in growth/viability
Description: as §1

CHIcisR = CHIcisR ovarian cancer cell line, 72 hours, 50% reduction in growth/viability
Description: as §1

OVCAR4 = OVCAR4 ovarian cancer cell line, 72 hours, 50% reduction in growth/viability
Description: as §1

A2780CP = A2780CP ovarian cancer cell line, 72 hours, 50% reduction in growth/viability
Description: as §1

Dov13 = Dov13 ovarian cancer cell line, 72 hours, 50% reduction in growth/viability
Description: as §1

OVCAR3 = OVCAR3 ovarian cancer cell line, 72 hours, 50% reduction in growth/viability
Description: as §1

CAOV2 = CAOV2 ovarian cancer cell line, 72 hours, 50% reduction in growth/viability
Description: as §1

TyknuCisR = TyknuCisR ovarian cancer cell line, 72 hours, 50% reduction in growth/viability
Description: as §1

OVCA432 = OVCA432 ovarian cancer cell line, 72 hours, 50% reduction in growth/viability
Description: as §1

M41 = M41 ovarian cancer cell line, 72 hours, 50% reduction in growth/viability
Description: as §1

OVCA433 = OVCA433 ovarian cancer cell line, 72 hours, 50% reduction in growth/viability
Description: as §1

TOV112D = TOV112D ovarian cancer cell line, 72 hours, 50% reduction in growth/viability
Description: as §1

MCAS = MCAS ovarian cancer cell line, 72 hours, 50% reduction in growth/viability
Description: as §1

CHI = CHI ovarian cancer cell line, 72 hours, 50% reduction in growth/viability
Description: as §1

Tyknu = Tyknu ovarian cancer cell line, 72 hours, 50% reduction in growth/viability
Description: as §1

M41CSR = M41CSR ovarian cancer cell line, 72 hours, 50% reduction in growth/viability
Description: as §1

OV2008 = OV2008 ovarian cancer cell line, 72 hours, 50% reduction in growth/viability
Description: as §1

SKOV3 = SKOV3 ovarian cancer cell line, 72 hours, 50% reduction in growth/viability
Description: as §1

OVCA429 = OVCA429 ovarian cancer cell line, 72 hours, 50% reduction in growth/viability
Description: as §1

N.N.O=C([O-])C1(C(=O)[O-])CCC1.[Pt+2] [Carboplatin, carboplatin]
IC50 (IGR-OV1): 65.4 µM
IC50 (OVCAR10): 128 µM
IC50 (CAOV3): 69.4 µM
IC50 (BG1): 144 µM
IC50 (SK-OV-4): 23 µM
IC50 (A2008): 20.2 µM
IC50 (OV90): 213 µM
IC50 (IMCC5): 41.3 µM
IC50 (A2780S): 24.3 µM
IC50 (CHIcisR): 20 µM
IC50 (OVCAR4): 72 µM
IC50 (A2780CP): 94.2 µM
IC50 (Dov13): 104 µM
IC50 (OVCAR3): 83.7 µM
IC50 (CAOV2): 70.2 µM
IC50 (TyknuCisR): 63.7 µM
IC50 (OVCA432): 63.1 µM
IC50 (M41): 41.6 µM
IC50 (OVCA433): 270 µM
IC50 (TOV112D): 75.8 µM
IC50 (MCAS): 237 µM
IC50 (CHI): 23.6 µM
IC50 (Tyknu): 9.6 µM
IC50 (M41CSR): 48.2 µM
IC50 (OV2008): 45.1 µM
IC50 (SKOV3): 247 µM
IC50 (OVCA429): 225 µM

CC(=O)O[C@H]1C(=O)[C@@]2(C)[C@H]([C@H](OC(=O)c3ccccc3)[C@]3(O)C[C@H](OC(=O)[C@H](O)[C@@H](NC(=O)c4ccccc4)c4ccccc4)C(C)=C1C3(C)C)[C@]1(OC(C)=O)CO[C@@H]1C[C@@H]2O [Paclitaxel, paclitaxel]
IC50 (IGR-OV1; Homo sapiens, IGROV-1): 0.0374 µM
IC50 (OVCAR10; Homo sapiens): 0.0071 µM
IC50 (CAOV3; Homo sapiens, Caov-3): 0.0046 µM
IC50 (BG1; Homo sapiens, BG-1): 0.0055 µM
IC50 (SK-OV-4; Homo sapiens): 0.0023 µM
IC50 (A2008; Homo sapiens): 0.0058 µM
IC50 (OV90; Homo sapiens, OV-90): 0.108 µM
IC50 (IMCC5; Homo sapiens): 0.0031 µM
IC50 (A2780S; Homo sapiens): 0.0024 µM
IC50 (CHIcisR; Homo sapiens): 0.0018 µM
IC50 (OVCAR4; Homo sapiens, OVCAR-4): 0.0178 µM
IC50 (A2780CP; Homo sapiens, A2780C/P): 0.004 µM
IC50 (Dov13; Homo sapiens): 0.0173 µM
IC50 (OVCAR3; Homo sapiens, OVCAR-3): 0.0169 µM
IC50 (CAOV2; Homo sapiens): 0.0204 µM
IC50 (TyknuCisR; Homo sapiens): 0.0072 µM
IC50 (OVCA432; Homo sapiens): 0.0063 µM
IC50 (M41; Homo sapiens): 0.0063 µM
IC50 (OVCA433; Homo sapiens): 0.0021 µM
IC50 (TOV112D; Homo sapiens): 0.111 µM
IC50 (MCAS; Homo sapiens): 0.0029 µM
IC50 (CHI; Homo sapiens): 0.000999 µM
IC50 (Tyknu; Homo sapiens): 0.0083 µM
IC50 (M41CSR; Homo sapiens): 0.0025 µM
IC50 (OV2008; Homo sapiens): 0.0139 µM
IC50 (SKOV3; Homo sapiens, SK-OV-3): 0.0887 µM
IC50 (OVCA429; Homo sapiens): 0.0029 µM
